The target in this test is T1, human TLR7 (Homo sapiens, UniProt Q9NYK1).
T1 sequence (Q9NYK1 27-1049): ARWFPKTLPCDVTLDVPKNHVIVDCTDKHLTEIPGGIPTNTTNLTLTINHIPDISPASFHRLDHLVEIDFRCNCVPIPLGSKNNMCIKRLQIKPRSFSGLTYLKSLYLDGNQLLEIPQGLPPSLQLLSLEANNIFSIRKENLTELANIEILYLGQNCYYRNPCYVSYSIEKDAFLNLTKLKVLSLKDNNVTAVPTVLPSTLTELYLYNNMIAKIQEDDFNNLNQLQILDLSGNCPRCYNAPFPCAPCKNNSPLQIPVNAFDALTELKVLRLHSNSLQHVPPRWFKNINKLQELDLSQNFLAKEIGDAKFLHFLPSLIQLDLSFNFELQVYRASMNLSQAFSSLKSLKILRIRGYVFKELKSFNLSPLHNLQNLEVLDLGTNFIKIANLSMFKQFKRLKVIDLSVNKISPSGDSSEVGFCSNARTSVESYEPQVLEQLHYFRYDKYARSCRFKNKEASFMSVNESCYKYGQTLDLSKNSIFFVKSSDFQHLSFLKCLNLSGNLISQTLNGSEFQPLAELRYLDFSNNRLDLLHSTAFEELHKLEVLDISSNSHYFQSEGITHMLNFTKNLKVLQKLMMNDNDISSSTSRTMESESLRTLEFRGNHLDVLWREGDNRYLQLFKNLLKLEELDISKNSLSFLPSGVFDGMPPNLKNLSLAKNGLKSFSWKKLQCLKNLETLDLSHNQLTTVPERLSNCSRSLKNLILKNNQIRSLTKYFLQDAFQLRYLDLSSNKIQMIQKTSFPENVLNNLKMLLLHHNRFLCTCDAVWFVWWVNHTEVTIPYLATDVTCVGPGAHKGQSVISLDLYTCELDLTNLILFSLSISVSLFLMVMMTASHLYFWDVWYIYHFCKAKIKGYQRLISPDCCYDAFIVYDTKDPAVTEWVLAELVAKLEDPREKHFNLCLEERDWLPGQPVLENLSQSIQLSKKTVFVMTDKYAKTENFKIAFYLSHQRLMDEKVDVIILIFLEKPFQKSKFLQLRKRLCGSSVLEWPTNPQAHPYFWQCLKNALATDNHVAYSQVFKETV
Put plainly: HEK293-Blue-hTLR-7 cells assay (SEAP reporter, R848 stimulation). To be noted: HEK293-Blue-hTLR7 cells, R848, 20 hrs incubation; read-out: HEK/hTLR7 IC50. In kind it is cell-based. Here is the method:
The following tests were carried out in order to determine the activity of the compounds of formula (I), (Ia) or (Ib) in HEK293-Blue-hTLR-7/8/9 cells assay.
HEK293-Blue-hTLR-7 Cells Assay:
A stable HEK293-Blue-hTLR-7 cell line was purchased from InvivoGen (Cat.#: hkb-htlr7, San Diego, Calif., USA). These cells were originally designed for studying the stimulation of human TLR7 by monitoring the activation of NF-κB. A SEAP (secreted embryonic alkaline phosphatase) reporter gene was placed under the control of the IFN-β minimal promoter fused to five NF-κB and AP-1-binding sites. The SEAP was induced by activating NF-κB and AP-1 via stimulating HEK-Blue hTLR7 cells with TLR7 ligands. Therefore the reporter expression was declined by TLR7 antagonist under the stimulation of a ligand, such as R848 (Resiquimod), for incubation of 20 hrs. The cell culture supernatant SEAP reporter activity was determined using QUANTI-Blue™ kit (Cat.#: rep-qb1, Invivogen, San Diego, Ca, USA) at a wavelength of 640 nm, a detection medium that turns purple or blue in the presence of alkaline phosphatase.
HEK293-Blue-hTLR7 cells were incubated at a density of 250,000˜450,000 cells/mL in a volume of 170 μL in a 96-well plate in Dulbecco's Modified Eagle's medium (DMEM) containing 4.5 g/L glucose, 50 U/mL penicillin, […], […], 2 mM L-glutamine, 10% (v/v) heat-inactivated fetal bovine serum with addition of 20 μL test compound in a serial dilution in the presence of final DMSO at 1% and 10 μL of 20 uM R848 in above DMEM, perform incubation under 37° C. in a CO2 incubator for 20 hrs. Then 20 μL of the supernatant from each well was incubated with 180 μL Quanti-blue substrate solution at 37° C. for 2 hrs and the absorbance was read at 620-655 nm using a spectrophotometer. The signaling pathway that TLR7 activation leads to downstream NF-κB activation has been widely accepted, and therefore similar reporter assay was modified for evaluating TLR7 antagonist.
With `C[C@@H]1CN(c2ccc(C#N)c3ncccc23)C[C@@H]2Cc3cc(OCCN(C)C)ccc3CN21` [Example 11, 5-[(4R,11aS)-9-[2-(dimethylamino)ethoxy]-4-methyl-1,3,4,6,11,11a-hexahydropyrazino[1,2-b]isoquinolin-2-yl]quinoline-8-carbonitrile], the IC50 was 5.8 nM.
Next, `C[C@@H]1CN(c2ccc(C#N)c3ncccc23)C[C@@H]2Cc3ccc(N4CCOCC(N)C4)cc3CN21` (stereo partly drawn) [Example 1, 5-[(4R,11aS)-8-(6-amino-1,4-oxazepan-4-yl)-4-methyl-1,3,4,6,11,11a-hexahydropyrazino[1,2-b]isoquinolin-2-yl]quinoline-8-carbonitrile]: 71.6 nM; `C[C@@H]1CN(c2ccc(C#N)c3ncccc23)C[C@@H]2Cc3cc(N4CCN(C(=O)[C@]5(C)CCCN5)CC4)ccc3CN21` [Example 14, 5-[(4R,11aS)-4-methyl-9-[4-[(2S)-2-methylpyrrolidine-2-carbonyl]piperazin-1-yl]-1,3,4,6,11,11a-hexahydropyrazino[1,2-b]isoquinolin-2-yl]quinoline-8-carbonitrile]: 18.6 nM.
Next, `C[C@@H]1CN(c2ccc(C#N)c3ncccc23)C[C@@H]2Cc3cc(N4CC(N)CC4=O)ccc3CN21` (stereo partly drawn) [Example 16, 5-[(4R,11aS)-9-(4-amino-2-oxo-pyrrolidin-1-yl)-4-methyl-1,3,4,6,11,11a-hexahydropyrazino[1,2-b]isoquinolin-2-yl]quinoline-8-carbonitrile]: 2.9 nM; `C[C@@H]1CN(c2ccc(C#N)c3ncccc23)C[C@@H]2Cc3cc(N4CCN(C(=O)C(C)(C)N)CC4)ccc3CN21` [Example 13, 5-[(4R,11aS)-9-[4-(2-amino-2-methyl-propanoyl)piperazin-1-yl]-4-methyl-1,3,4,6,11,11a-hexahydropyrazino[1,2-b]isoquinolin-2-yl]quinoline-8-carbonitrile]: 18.6 nM.
With `C[C@@H]1CN(c2ccc(C#N)c3ncccc23)C[C@@H]2Cc3ccc(OCCN(C)C)cc3CN21` [Example 5, 5-[(4R,11aS)-8-[2-(dimethylamino)ethoxy]-4-methyl-1,3,4,6,11,11a-hexahydropyrazino[1,2-b]isoquinolin-2-yl]quinoline-8-carbonitrile] the figure was 38.2 nM; with `C[C@@H]1CN(c2ccc(C#N)c3ncccc23)C[C@@H]2Cc3cc(N4C[C@@H](F)[C@@H](N)C4)ccc3CN21` [Example 8, 5-[(4R,11aS)-9-[(3S,4R)-3-amino-4-fluoro-pyrrolidin-1-yl]-4-methyl-1,3,4,6,11,11a-hexahydropyrazino[1,2-b]isoquinolin-2-yl]quinoline-8-carbonitrile], 35.5 nM; with `C[C@@H]1CN(c2ccc(C#N)c3ncccc23)C[C@@H]2Cc3cc(N4C[C@@H]5C[C@H]4CN5C(=O)C(C)(C)N)ccc3CN21` [Example 15, 5-[(4R,11aS)-9-[(1S,4S)-5-(2-amino-2-methyl-propanoyl)-2,5-diazabicyclo[2.2.1]heptan-2-yl]-4-methyl-1,3,4,6,11,11a-hexahydropyrazino[1,2-b]isoquinolin-2-yl]quinoline-8-carbonitrile], 2.4 nM.
As to `C[C@@H]1CN(c2ccc(C#N)c3ncccc23)C[C@@H]2Cc3cc(N4C[C@@H]5CNCCN5C4=O)ccc3CN21` (single isomer, unassigned) [Example 17A], the IC50 came to 10.3 nM.
With `C[C@@H]1CN(c2ccc(C#N)c3ncccc23)C[C@@H]2Cc3cc(N4CC5CNCCC5C4=O)ccc3CN21` (stereo partly drawn) [Example 19, 5-[(4R,11aS)-4-methyl-9-(1-oxo-3a,4,5,6,7,7a-hexahydro-3H-pyrrolo[3,4-c]pyridin-2-yl)-1,3,4,6,11,11a-hexahydropyrazino[1,2-b]isoquinolin-2-yl]quinoline-8-carbonitrile] the figure was 53.1 nM; with `C[C@@H]1CN(c2ccc(C#N)c3ncccc23)C[C@@H]2Cc3cc(N4CC5CCNCC5C4=O)ccc3CN21` (stereo partly drawn) [Example 18, 5-[(4R,11aS)-4-methyl-9-(3-oxo-3a,4,5,6,7,7a-hexahydro-1H-pyrrolo[3,4-c]pyridin-2-yl)-1,3,4,6,11,11a-hexahydropyrazino[1,2-b]isoquinolin-2-yl]quinoline-8-carbonitrile], 71.6 nM.
As for `C[C@@H]1CN(c2ccc(C#N)c3ncccc23)C[C@@H]2Cc3cc(N[C@@H]4CNC[C@@H]4F)ccc3CN21` [Example 6, 5-[(4R,11aS)-4-methyl-9-[[(3R,4S)-4-fluoropyrrolidin-3-yl]amino]-1,3,4,6,11,11a-hexahydropyrazino[1,2-b]isoquinolin-2-yl]quinoline-8-carbonitrile], the IC50 was 24.7 nM.
For `CO[C@H]1CN(c2ccc3c(c2)C[C@H]2CN(c4ccc(C#N)c5ncccc45)C[C@@H](C)N2C3)C[C@H]1N` [Example 9, 5-[(4R,11aS)-9-[(3R,4S)-3-amino-4-methoxy-pyrrolidin-1-yl]-4-methyl-1,3,4,6,11,11a-hexahydropyrazino[1,2-b]isoquinolin-2-yl]quinoline-8-carbonitrile], the IC50 was 19.5 nM.
Regarding `C[C@@H]1CN(c2ccc(C#N)c3ncccc23)C[C@@H]2Cc3cc(N4CC5NCCOC5C4)ccc3CN21` (stereo in doubt) [Example 10, 5-[(4R,11aS)-9-[(4aS,7aS)-3,4,4a,5,7,7a-hexahydro-2H-pyrrolo[3,4-b][1,4]oxazin-6-yl]-4-methyl-1,3,4,6,11,11a-hexahydropyrazino[1,2-b]isoquinolin-2-yl]quinoline-8-carbonitrile], the IC50 worked out at 21.8 nM.
Next, `CO[C@H]1CNC[C@H]1Nc1ccc2c(c1)C[C@H]1CN(c3ccc(C#N)c4ncccc34)C[C@@H](C)N1C2` [Example 7, 5-[(4R,11aS)-9-[[(3R,4S)-4-methoxypyrrolidin-3-yl]amino]-4-methyl-1,3,4,6,11,11a-hexahydropyrazino[1,2-b]isoquinolin-2-yl]quinoline-8-carbonitrile]: 27.4 nM.
With `C[C@@H]1CN(c2ccc(C#N)c3ncccc23)C[C@@H]2Cc3ccc(NCCN4CC[C@H](O)C4)cc3CN21` [Example 2, 5-[(4R,11aS)-8-[2-[(3S)-3-hydroxypyrrolidin-1-yl]ethylamino]-4-methyl-1,3,4,6,11,11a-hexahydropyrazino[1,2-b]isoquinolin-2-yl]quinoline-8-carbonitrile] the figure was 53.1 nM.
Regarding `C[C@@H]1CN(c2ccc(C#N)c3ncccc23)C[C@@H]2Cc3cc(N4C[C@H]5CNCCN5C4=O)ccc3CN21` (single isomer, unassigned) [Example 17B], the IC50 turned out to be 10.3 nM.
With `C[C@@H]1CN(c2ccc(C#N)c3ncccc23)C[C@@H]2Cc3cc(OC[C@@H]4CCN4)ccc3CN21` [Example 12, 5-[(4R,11aS)-9-[[(2S)-azetidin-2-yl]methoxy]-4-methyl-1,3,4,6,11,11a-hexahydropyrazino[1,2-b]isoquinolin-2-yl]quinoline-8-carbonitrile] the figure was 18.2 nM.

Values taken from patent US20230002375A1, “HYDROPYRAZINO[1,2-B]ISOQUINOLINE COMPOUNDS FOR THE TREATMENT OF AUTOIMMUNE DISEASE” (Hoffmann-La Roche Inc., priority 2019, published 2023).
